Test results reported in US9226919B2, “Methods for dosing an orally active 1,2,4-oxadiazole” (PTC Therapeutics, Inc., priority 2006, dated 2016).
“And” between values parts separate entries of the source, which are not always exact repeats. Identical values can stand only once.

System: dystrophin
Test: Dystrophin expression in EDB muscle biopsy by immunofluorescence, Phase 2 DMD study
Format: in vivo, human
Conditions: for In Vivo Expression Response (dystrophin): individual DMD patients, 28 days
Description: Biopsy of the EDB muscle and overlying skin from one foot is performed under local anesthesia and conscious sedation (in some cases, general anesthesia may be required) prior to treatment, and from the other foot on the last day of treatment. The biopsy procedure is performed using standardized techniques (Stedman, 2000, Human Gene Therapy 11:777-90). The entire muscle belly (whenever possible) is removed in the procedure. At the time of collection of the biopsy prior to treatment, the muscle specimen is divided into at least 3 fragments and the biopsy specimen collected on the last day of treatment is divided into at least 2 fragments. The biopsy specimen is placed on a telfa gauze sponge moistened with Ringer's saline. The biopsy specimen is viewed at low power under a stereo dissection microscope to establish fiber orientation. The muscle is then transected using a sharp scalpel in a cross sectional fashion (perpendicular to the orientation of the fibers) whenever possible and allowed to rest for 2 minutes to allow for the cessation of spasm. The sample is then frozen in liquid nitrogen cooled isopentane, transferred to a liquid nitrogen reservoir and held 1 inch above the liquid/vapor interface for 2 minutes of slow cooling and isopentane evaporation before immersion in the liquid nitrogen, and wrapped into precooled (in liquid nitrogen and stored on dry ice) foil labeled with the study number, site number, patient number, date, patient initials, and foot side (right foot or left foot).
All sample containers are clearly labeled in a fashion that identifies the subject and the collection date. Labels are fixed to the sample containers in a manner that prevents the label from becoming detached. Samples are shipped for analysis/culture/central review immediately after the procedure is performed. For detection of dystrophin, 3 commercially available antibodies that recognize the C-terminus, the N-terminus, and the rod domain of the protein are employed. For detection of the sarcoglycan and dystroglycan complex, commercially available antibodies against α-, β-, γ-, and δ-sarcoglycan, and β-dystroglycan are used when possible. Epifluorescence microscopy is used in the analysis; images are captured by CCD camera, after normalization of the fluorescence intensity against a normal muscle specimen. Images are stored digitally and preserved for future review, and final evaluation at the completion of the study. Tissues are also processed for detection of dystrophin, the sarcoglycans, and β-dystroglycan by Western blotting using the same antibodies. Microscopic images are captured and preserved for future review, and for final evaluation at the completion of the study. Remaining muscle tissue samples are preserved for confirmatory assays of mRNA and proteins involved in DMD. […]

O=C(O)c1cccc(-c2noc(-c3ccccc3F)n2)c1 [3-[5-(2-fluoro-phenyl)-[1,2,4]oxadiazol-3-yl]-benzoic acid]
In Vivo Expression Response (dystrophin) (High Dose: 20, 20, 40 mg/kg): Yes (6×) and No (6×) | In Vivo Expression Response (dystrophin) (Low Dose: 4, 4, 8 mg/kg): Yes (4×) and No (2×) | In Vivo Expression Response (dystrophin) (Middle Dose: 10, 10, 20 mg/kg): Yes (10×) and No (10×) | Extensor digitorum brevis muscle membrane dystrophin on staining for the C-terminal domain (some patients at both dose levels, day 28 relative to baseline): Partial restoration or increase
